Reference: PubChem BioAssay (NCI)
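Following 48 hours of exposure in 96-well plates, responses at five concentrations were used to interpolate endpoints linearly. TGI: concentration producing complete growth inhibition.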

Tests used:
Assay in all cases: DTP human tumour cell line panel, 48 h
[1] = system: NCI-H460 lung
[2] = system: K-562 leukemia
[3] = system: 786-0 renal
[4] = system: RXF 393 renal
[5] = system: HCT-15 colon
[6] = system: HOP-62 NSCLC
[7] = system: MALME-3M melanoma
[8] = system: HOP-92 NSCLC
[9] = system: COLO 205 colon
[10] = system: NCI-H226 lung
[11] = system: M14 melanoma
[12] = system: SNB-75 CNS
[13] = system: HOP-18 NSCLC
[14] = system: SF-268 CNS
[15] = system: SK-OV-3 ovarian
[16] = system: A498 renal
[17] = system: HCT-116 colon
[18] = system: SNB-78 CNS
[19] = system: OVCAR-4 ovarian
[20] = system: KM12 colon
[21] = system: NCI-H522 lung
[22] = system: NCI-H23 lung
[23] = system: SR leukemia
[24] = system: SK-MEL-2 melanoma
[25] = system: IGROV1 ovarian
[26] = system: ACHN renal
[27] = system: LXFL 529 NSCLC
[28] = system: UACC-62 melanoma
[29] = system: OVCAR-8 ovarian
[30] = system: HCC-2998 colon
[31] = system: A549 NSCLC
[32] = system: SN12C renal
[33] = system: SF-539 CNS
[34] = system: SW-620 colon
[35] = system: RPMI-8226 leukemia
[36] = system: OVCAR-5 ovarian
[37] = system: LOX IMVI melanoma
[38] = system: MOLT-4 leukemia
[39] = system: U251 CNS
[40] = system: TK-10 renal
[41] = system: M19-MEL melanoma
[42] = system: OVCAR-3 ovarian
[43] = system: DMS 273 small cell lung
[44] = system: UACC-257 melanoma
[45] = system: DMS 114 small cell lung
[46] = system: EKVX NSCLC
[47] = system: SK-MEL-5 melanoma
[48] = system: CCRF-CEM leukemia
[49] = system: SF-295 CNS
[50] = system: HL-60(TB) leukemia
[51] = system: KM20L2 colon
[52] = system: SK-MEL-28 melanoma
[53] = system: HT29 colon
[54] = system: UO-31 renal
[55] = system: DLD-1 colon
[56] = system: SNB-19 CNS
[57] = system: XF 498 CNS

Measured: TGI

O=C(CC/C(CC(=O)c1ccc(Br)cc1)=N\O)Nc1ccc(Cl)c(Cl)c1
90.7 µM: [4]
53.5 µM: [21]
not listed: [56] | [57]
> 100 µM: all other assays above

Brc1cc2c(cc1Br)CN(c1ccccc1)C2
not listed: [13] | [21] | [23]
> 100 µM: all other assays above
